Values quoted from earlier work as cited in PMC8592027, “Structure-Guided Design of D-Galactal Derivatives with High Affinity and Selectivity for the Galectin-8 N-Terminal Domain” (ACS Medicinal Chemistry Letters, 2021).

Legend:
Conditions in all cases: cited from earlier work
galectin-2 = biological target: T1, galectin-2 (Homo sapiens, UniProt P05162); parameters: method as in PMID 30117507, PMID 15889175, doi:10.1139/cjc-2015-0598
T1 sequence (P05162 1-132): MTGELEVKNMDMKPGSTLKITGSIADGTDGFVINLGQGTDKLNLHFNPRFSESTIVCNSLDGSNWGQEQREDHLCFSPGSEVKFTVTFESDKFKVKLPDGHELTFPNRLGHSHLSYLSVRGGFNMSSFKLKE

[1] = biological target: T2, galectin-9N (N-terminal domain) (Homo sapiens, UniProt O00182)
T2 construct: galectins (N = N-terminal domain, C = C-terminal domain); made in house
T2 sequence (O00182 17-148 limits assumed): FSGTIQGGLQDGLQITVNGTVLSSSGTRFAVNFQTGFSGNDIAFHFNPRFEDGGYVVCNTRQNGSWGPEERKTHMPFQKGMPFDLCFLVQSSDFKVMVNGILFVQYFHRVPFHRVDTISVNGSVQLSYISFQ

[2] = biological target: T3, galectin-9C (C-terminal domain) (Homo sapiens, UniProt O00182)
T3 construct: galectins (N = N-terminal domain, C = C-terminal domain); made in house
T3 sequence (O00182 227-355 limits assumed): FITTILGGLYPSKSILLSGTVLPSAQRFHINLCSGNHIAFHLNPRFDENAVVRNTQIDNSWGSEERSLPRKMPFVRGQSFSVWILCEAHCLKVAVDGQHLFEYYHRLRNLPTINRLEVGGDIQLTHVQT

Q: With CO[C@@H]1O[C@H](CO)[C@H](O)[C@H](O)[C@H]1O [methyl β-D-galactoside] as the compound, how does the Kd (galectin-2) read?
A: 13 mM

Q: And the Kd [1]?
A: 3.3 mM

Q: And the Kd [2]?
A: 8.6 ± 7.31 mM
